Experimental data reported in ChEMBL document CHEMBL1201862, “PubChem BioAssay data set” (2004).
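Five compound concentrations were applied to cells in 96-well plates for 48 hours; endpoints were derived by simple linear interpolation of the resulting dose-response curve. GI50 marks 50% less growth.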 Activity calls are given as the source filed them. Cut-off read from the data, not from the text of the source: active = GI50 up to about 1.1 µM and inactive = higher.

What was measured:
Assay in all cases: NCI anticancer screen, dose series, 48 h
[1] = tested on: MCF7
[2] = tested on: DU-145
[3] = tested on: U-251
[4] = tested on: TK-10
[5] = tested on: SF-268
[6] = tested on: ACHN
[7] = tested on: SK-MEL-5
[8] = tested on: 786-0
[9] = tested on: SW-620
[10] = tested on: A498
[11] = tested on: PC-3
[12] = tested on: SK-MEL-2
[13] = tested on: NCI-H460
[14] = tested on: K562
[15] = tested on: KM12
[16] = tested on: MDA-MB-435
[17] = tested on: MOLT-4
[18] = tested on: UACC-62
[19] = tested on: M14
[20] = tested on: RXF 393

Measured: GI50

O=C(O)CC1NCc2cc3ccccc3nc21 (stereo not given)
inactive: [1] > 100 µM | [2] > 100 µM | [3] > 100 µM | [4] > 100 µM | [5] > 100 µM | [6] > 100 µM | [7] > 100 µM | [8] > 100 µM | [9] > 100 µM | [10] > 100 µM | [11] > 100 µM | [12] > 100 µM | [13] > 100 µM | [14] > 100 µM | [15] > 100 µM | [16] > 100 µM | [17] > 100 µM | [18] > 100 µM | [19] > 100 µM | [20] > 100 µM

CCOC(=O)c1nc2ccc(C(F)(F)F)cc2nc1Oc1ccc(C#N)cc1
inactive: [1] 18.2 µM | [2] 18.5 µM | [3] 26.3 µM | [4] 30.1 µM | [5] 15.5 µM | [6] 29.9 µM | [7] 38.3 µM | [8] 18 µM | [9] 40.3 µM | [10] 23.3 µM | [11] 17.3 µM | [12] 15.7 µM | [13] 46.7 µM | [14] > 100 µM | [15] 23.6 µM | [16] 42.9 µM | [17] > 100 µM | [18] 19.1 µM | [19] 18.5 µM | [20] 20 µM

Oc1[nH]c(Nc2ccc(Cl)c(C(F)(F)F)c2)nc2ncnc1-2
inactive: [1] 27.2 µM | [2] 36.1 µM | [3] 50.5 µM | [4] 52.6 µM | [5] 36.2 µM | [6] 44.5 µM | [7] 40.4 µM | [8] 25.7 µM | [9] 70 µM | [10] 24 µM | [11] 33 µM | [12] 25.5 µM | [13] 51.8 µM | [14] 39.6 µM | [15] 44.8 µM | [16] 50.2 µM | [17] 23.2 µM | [18] 32.6 µM | [19] 57.4 µM | [20] 26.1 µM
